Measured values: ChEMBL document CHEMBL1201862, “PubChem BioAssay data set” (2004)
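Compound exposure: 48 hours, 5 concentrations, 96-well plates. At the GI50, growth is halved.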 Calls of active or inactive are those of the source. Cut-off read from the data, not from the text of the source: active = GI50 up to about 1.1 µM and inactive = higher. Residues, ends and D or L forms follow the SMILES beside them. *: point of attachment. Boc = CC(C)(C)OC(=O)*; OBn = c1ccc(CO*)cc1

What was measured:
Assay in all cases: DTP human tumour cell line panel, 48 h
RXF 631 = tested on: RXF 631
M19-MEL = tested on: M19-MEL
HOP-18 = tested on: HOP-18
DLD-1 = tested on: DLD-1
DMS-114 = tested on: DMS-114
SNB-78 = tested on: SNB-78
XF498 = tested on: XF498
BT-549 = tested on: BT-549
DMS-273 = tested on: DMS-273

CC(=O)/C(=C\C1=CCCO1)C(=O)Nc1ccccc1C
GI50 (RXF 631): > 100 µM (inactive) | GI50 (M19-MEL): > 100 µM (inactive) | GI50 (HOP-18): > 100 µM (inactive) | GI50 (DLD-1): > 100 µM (inactive) | GI50 (DMS-114): > 100 µM (inactive) | GI50 (SNB-78): > 100 µM (inactive) | GI50 (XF498): > 100 µM (inactive)

CCOC(=O)c1cn(-c2ccc([N+](=O)[O-])cc2)c(=S)n2c1nc1ccccc12
GI50 (BT-549): 35 µM (inactive)

COc1cc(/C=C2/CCCc3ccccc3C2=O)cc(OC)c1OC
GI50 (BT-549): 13.8 µM (inactive)

C/C(=N\Nc1cc(CN2CCCC2)c(-c2ccc(Cl)cc2)nn1)C(=O)O
GI50 (BT-549): > 100 µM (inactive)

O=C(OCCN=c1c2ccccc2ccc2ccccc12)c1ccc([N+](=O)[O-])cc1
GI50 (BT-549): > 100 µM (inactive)

CC(=O)OCC1OC(n2c(C)c(/N=N/c3ccc(C)cc3)c(C)c(C#N)c2=S)C(OC(C)=O)C(OC(C)=O)C1OC(C)=O (configuration not stated)
GI50 (BT-549): > 100 µM (inactive)

Cc1ccccc1C(O)(c1nccn1C)c1nccn1C
GI50 (BT-549): > 100 µM (inactive)

COc1ccc(/N=N/C(=N/NC(=O)c2ccccc2)c2ccc(N(CCC#N)CCC#N)cc2C)cc1
GI50 (BT-549): 52.4 µM (inactive)

CCN(CC)CCC(=O)/C=C/c1ccccc1
GI50 (BT-549): 6.9 µM (inactive)

NNC(=O)CCC(NS(=O)(=O)c1ccc(Cl)cc1)C(=O)NN (configuration not stated)
GI50 (BT-549): > 100 µM (inactive)

COc1cc2cc(C(=O)N3C[C@H](CCl)c4c3cc(N)c3ccccc43)[nH]c2c(OC)c1OC
GI50 (BT-549): 1.38 µM (inactive)

CCn1c(CCCc2nc3c(=O)n(C)c(=O)n(C)c3[nH]2)nc2c1c(=O)n(C)c(=O)n2C
GI50 (BT-549): > 100 µM (inactive)

CC(=O)CCn1ncc(Cl)c(Cl)c1=O
GI50 (M19-MEL): 4.92 µM (inactive) | GI50 (DMS-273): 17.7 µM (inactive) | GI50 (HOP-18): 16.6 µM (inactive) | GI50 (DLD-1): 11.2 µM (inactive) | GI50 (SNB-78): 19.8 µM (inactive) | GI50 (XF498): 19.7 µM (inactive)

N#CC(C(=O)C(=O)NCCCNC(=O)C(=O)C(C#N)c1ccccc1)c1ccccc1 (configuration not stated)
GI50 (M19-MEL): > 100 µM (inactive) | GI50 (DMS-273): > 100 µM (inactive) | GI50 (HOP-18): > 100 µM (inactive) | GI50 (DLD-1): > 100 µM (inactive) | GI50 (DMS-114): > 100 µM (inactive) | GI50 (SNB-78): > 100 µM (inactive)

COc1cc(C2SC(=N)Nc3c2c(C)nn3C(=O)Cc2ccccc2)cc(OC)c1OC (configuration not stated)
GI50 (BT-549): > 100 µM (inactive)

C=C1C(=O)[C@@]23CC[C@@H]4[C@@]5(C)CCC[C@@]4(OC5=O)[C@@]2(C)CC[C@@H]1C3
GI50 (BT-549): 1.3 µM (inactive)

N#CC(CCN1CCC(Nc2ccccc2)(c2nnnn2C2CCCCC2)CC1)(c1ccccc1)c1ccccc1
GI50 (BT-549): > 100 µM (inactive)

NS(=O)(=O)c1nnc(NSc2ccc([N+](=O)[O-])cc2)s1
GI50 (BT-549): > 100 µM (inactive)

CC(C)(C)OC(=O)NCCNCCNc1ccccc1
GI50 (BT-549): > 100 µM (inactive)

O=C(/C=C/c1ccccc1)CCN1CCCCC1
GI50 (BT-549): 47.1 µM (inactive)

O=[N+]([O-])c1cc(I)cc(/C=N/NS(=O)(=O)c2ccc(F)cc2)c1O
GI50 (RXF 631): 23.7 µM (inactive) | GI50 (M19-MEL): 31.2 µM (inactive) | GI50 (DMS-273): 21.5 µM (inactive) | GI50 (HOP-18): 19.7 µM (inactive) | GI50 (DLD-1): 36.5 µM (inactive) | GI50 (DMS-114): 24.2 µM (inactive) | GI50 (SNB-78): 23.3 µM (inactive)

CC1=N/C(=C\c2cccc([N+](=O)[O-])c2)C(=O)O1
GI50 (M19-MEL): > 100 µM (inactive) | GI50 (HOP-18): > 100 µM (inactive) | GI50 (DLD-1): > 100 µM (inactive) | GI50 (DMS-114): > 100 µM (inactive) | GI50 (SNB-78): 86.1 µM (inactive)

COc1nc2ncc([C@@H](O)[C@H](O)CO)nc2c(=O)n1C
GI50 (BT-549): > 100 µM (inactive)

O=c1cc(N2CCCC2)[nH]c(=O)n1-c1ccc(Cl)cc1
GI50 (BT-549): > 100 µM (inactive)

Cc1ccc2[nH]c3c(c2c1)CCC/C3=N/N=C(N)N
GI50 (BT-549): 14.5 µM (inactive)

COc1ccc(-c2cc(=O)c3c(OC)c(OC)c(OC)c(OC)c3o2)c(OC)c1
GI50 (BT-549): 31 µM (inactive)

[O-][S+]1c2ccccc2N=C(c2ccc3ccccc3c2)CC1c1ccccc1F (configuration not stated)
GI50 (RXF 631): > 100 µM (inactive) | GI50 (M19-MEL): > 100 µM (inactive) | GI50 (DMS-273): > 100 µM (inactive) | GI50 (HOP-18): > 100 µM (inactive) | GI50 (DLD-1): > 100 µM (inactive) | GI50 (DMS-114): > 100 µM (inactive) | GI50 (XF498): > 100 µM (inactive)

Nc1nc(N)c2cc(Sc3cccc(C(F)(F)F)c3)ccc2n1 [WR-159412]
GI50 (BT-549): 6.07 µM (inactive)

CC(C)c1cccc(C(C)C)c1NC1=CC(=O)C(=O)c2ccccc21
GI50 (RXF 631): > 100 µM (inactive) | GI50 (M19-MEL): 22.3 µM (inactive) | GI50 (DMS-273): > 100 µM (inactive) | GI50 (HOP-18): > 100 µM (inactive) | GI50 (DLD-1): > 100 µM (inactive) | GI50 (SNB-78): > 100 µM (inactive)

COc1ccc(CCn2c(=O)c3ccccc3n(C)c2=O)cc1
GI50 (M19-MEL): 19.3 µM (inactive) | GI50 (DLD-1): 28.6 µM (inactive) | GI50 (DMS-114): 11.2 µM (inactive) | GI50 (SNB-78): 36.5 µM (inactive) | GI50 (XF498): 37.2 µM (inactive)

O=C(O)c1cc(/N=C/c2ccccc2O)cc(C(=O)O)c1
GI50 (BT-549): > 100 µM (inactive)

C/C(Nc1ccc(F)cc1)=C1/CCOC1=O
GI50 (BT-549): > 100 µM (inactive)

Cc1ccc2nc(N/N=C/c3sccc3C)cc(C)c2c1
GI50 (BT-549): > 100 µM (inactive)

CC(NC(=O)CNC(=O)OC(C)(C)C)C(=O)NC(Cc1ccccc1)C(=O)OCc1ccccc1 (stereo not drawn) (Boc-Gly-Ala-Phe-OBn; configuration not given here)
GI50 (BT-549): > 100 µM (inactive)

O=S(=O)(c1ccc(Br)cc1)N1CCN(S(=O)(=O)c2ccc(Br)cc2)CC1
GI50 (BT-549): > 100 µM (inactive)

Cc1ccc(S(=O)(=O)C2c3nc4ccccc4cc3-c3nc4ccccc4nc32)cc1 (configuration not stated)
GI50 (M19-MEL): > 100 µM (inactive) | GI50 (DMS-273): > 100 µM (inactive) | GI50 (DLD-1): > 100 µM (inactive) | GI50 (DMS-114): > 100 µM (inactive) | GI50 (SNB-78): 67 µM (inactive) | GI50 (XF498): > 100 µM (inactive)

O=C(NS(=O)(=O)c1ccccc1)C(Cc1ccccc1)C(Cc1ccccc1)C(=O)NS(=O)(=O)c1ccccc1 (configuration not stated)
GI50 (M19-MEL): > 100 µM (inactive) | GI50 (DMS-273): > 100 µM (inactive) | GI50 (HOP-18): > 100 µM (inactive) | GI50 (DLD-1): > 100 µM (inactive) | GI50 (DMS-114): > 100 µM (inactive)
